Data set [1] deals with T1, E. coli topoisomerase IV (Escherichia coli, UniProt P20083). Further details: method as in PMID 33017402, PMID 33524686, PMID 36634346, PMID 36877255. Particulars: parent inhibitors; cited from earlier work.
The subject of data set [2] is P. aeruginosa ATCC 27853. Description: Broth microdilution MIC, P. aeruginosa ATCC 27853. In kind it is cell-based. Particulars: Pseudomonas aeruginosa, ATCC27853, P. aeruginosa ATCC 27853, read-out: Minimum inhibitory concentrations. The text has this: (§1) Cefiderocol, a siderophore cephalosporin, was used as a positive control. Compound 18a was only tested on E. coli in both media conditions. Iron-depleted conditions were used to determine the effects of the attached siderophore mimics on antibacterial activities, since bacteria under low iron conditions produce and secrete siderophores to take up iron from the extracellular environment.[32] […] We have previously observed that our benzothiazole GyrB/ParE inhibitors are strongly effluxed from the G− bacterial cells and that this effect is especially pronounced in E. coli.[14] Therefore, compounds 10, 12, and 18b were also tested against E. coli JW5503, which is a tolC deletion mutant strain with a defective efflux pump.
(§2) The single-gene knock-out mutant strain of E. coli JW5503 (tolC knock-out) was obtained from the E. coli collection of the National BioResource Project at the National Institute of Genetics (Japan).[45] To determine the antibacterial activities, broth microdilution assays were carried out in 96-well plates following the Clinical and Laboratory Standards Institute guidelines.[46] Compounds were prepared as 100% DMSO stock solutions. The final concentration of DMSO was 1% and had no effect on the growth of bacteria. Preliminary screening was performed at 50 μM, and growth inhibition was measured after 24 h incubation at 37 °C. For compounds displaying >90% growth inhibition in the preliminary assay, MIC values were determined in dose–response assays (from at least two independent experiments, each with three replicates per concentration). Cation-adjusted Mueller-Hinton broth (CAMHB, BD) was used in all assays. CAMHB was prepared according to manufacturer's instructions and iron-depleted CAMHB (ID-CAMHB) according to CLSI guidelines. ID-CAMHB was used in order to mimic the conditions faced by bacteria during human infections, and induces the ferric iron transport. ID-CAMHB was prepared by adding 100 g of Chelex 100 resin (Bio-Rad) to 1 L of autoclaved CAMHB and stirred for 2 h at room temperature, in order to remove cations from the medium. Then, broth was filtered using a 0.2 μm filter to remove the resin and pH adjusted to 7.3 using 5 M hydrochloric acid. ID-CAMHB was then supplemented with calcium (CaCl2), magnesium (MgCl2) and zinc (ZnSO4) to final concentrations of 22.5 μg mL^−1, 11.25 μg mL^−1 and 0.56 μg mL^−1, respectively, and filtered again. To evaluate the effect of iron concentration on antibacterial effect of compounds, an appropriate amount of iron(III) chloride was added to ID-CAMHB, and this supplemented media was used as control CAMHB. The iron concentration in CAMHB and ID-CAMHB were approximately 0.2 mg L^−1 and ≤0.03 mg L^−1, respectively. Cefiderocol, a positive control, MICs were determined against E. coli, P. aeruginosa and A. baumannii, and used as positive control in the assays. Cefiderocol was purchased from MedChemExpress Europe.
(In general: In broth dilution the organism is exposed to a series of concentrations in liquid medium.)

Data set [3] concerns E. coli JW5503. The experiment in a line: Broth microdilution MIC, efflux-defective E. coli JW5503 (tolC deletion mutant). In kind it is cell-based, Escherichia coli. Particulars: for MIC: Escherichia coli; for improvement of antibacterial activity in iron-depleted medium: iron-depleted vs iron-supplemented medium, E. coli JW5503.
Excerpt: as §1, §2

Data set [4] relates to A. baumannii ATCC 19606. The experiment in a line: Broth microdilution MIC, A. baumannii ATCC 19606. Format: cell-based. The note with it: Acinetobacter baumannii, ATCC19606, A. baumannii ATCC 19606, read-out: Minimum inhibitory concentrations.
Excerpt: as §1, §2

In data set [5] the test system is E. coli ATCC 25922. Description: Broth microdilution MIC, E. coli ATCC 25922. In kind it is cell-based, Escherichia coli.
Excerpt: as §1, §2

Data set [6] addresses E. coli DNA gyrase (Escherichia coli, UniProt P0AES6). The experiment in a line: E. coli DNA gyrase supercoiling assay. Format: biochemical. Particulars: for IC50: supercoiling assay, average of three independent measurements. The source says:
(§3) All final compounds were first tested for their inhibitory activity in the E. coli DNA gyrase supercoiling assay and the E. coli topoisomerase IV relaxation assay (Table 1). […] These observations were confirmed with compounds 18a and 18b, which carried the siderophore mimic at position 4. […] With compounds 18a and 18b, we confirmed our hypothesis that it is possible to maintain potent enzyme inhibition after introduction of the siderophore mimic into the structure of the GyrB/ParE inhibitor.
(§4) The assays for determination of IC50 against E. coli DNA gyrase and topoisomerase IV were performed according to previously reported procedures.[23] IC50 values were determined with seven concentrations of the inhibitors. […] IC50 values were determined in three independent measurements, and their average value is given as a final result.

Data set [7] concerns the target T1, E. coli topoisomerase IV. The experiment in a line: E. coli topoisomerase IV relaxation assay. The note with it: average of three independent measurements. In kind it is biochemical.
Excerpt: as §3, §4

Data set [8] concerns wild type G− E. coli, P. aeruginosa and A. baumannii. The experiment in a line: Antibacterial activity against wild type G− bacteria (screen at 50 μM). Format: cell-based.
Excerpt: as §1
as §2, with “The iron concentration in CAMHB and ID-CAMHB were approximately 0.2 mg L^−1 and ≤0.03 mg L^−1, respectively.” left out, “Cefiderocol was purchased from MedChemExpress Europe.” left out

Where [9] appears, read: JW5503, read-out: Minimum inhibitory concentrations, E. coli JW5503, +Fe: CAMHB + Fe.
Where [10] appears, read: JW5503, read-out: Minimum inhibitory concentrations, E. coli JW5503, −Fe: ID-CAMHB.
Where [11] appears, read: E. coli ATCC 25922, +Fe: CAMHB + Fe, read-out: Minimum inhibitory concentrations.
The mark [12] stands for this setting: Escherichia coli, ATCC25922, read-out: Minimum inhibitory concentrations.

Converted amounts (≈) assume the structure as drawn. Where two headings read alike, the source gives them in different places.

T1 sequence (P0AFI2 whole entry): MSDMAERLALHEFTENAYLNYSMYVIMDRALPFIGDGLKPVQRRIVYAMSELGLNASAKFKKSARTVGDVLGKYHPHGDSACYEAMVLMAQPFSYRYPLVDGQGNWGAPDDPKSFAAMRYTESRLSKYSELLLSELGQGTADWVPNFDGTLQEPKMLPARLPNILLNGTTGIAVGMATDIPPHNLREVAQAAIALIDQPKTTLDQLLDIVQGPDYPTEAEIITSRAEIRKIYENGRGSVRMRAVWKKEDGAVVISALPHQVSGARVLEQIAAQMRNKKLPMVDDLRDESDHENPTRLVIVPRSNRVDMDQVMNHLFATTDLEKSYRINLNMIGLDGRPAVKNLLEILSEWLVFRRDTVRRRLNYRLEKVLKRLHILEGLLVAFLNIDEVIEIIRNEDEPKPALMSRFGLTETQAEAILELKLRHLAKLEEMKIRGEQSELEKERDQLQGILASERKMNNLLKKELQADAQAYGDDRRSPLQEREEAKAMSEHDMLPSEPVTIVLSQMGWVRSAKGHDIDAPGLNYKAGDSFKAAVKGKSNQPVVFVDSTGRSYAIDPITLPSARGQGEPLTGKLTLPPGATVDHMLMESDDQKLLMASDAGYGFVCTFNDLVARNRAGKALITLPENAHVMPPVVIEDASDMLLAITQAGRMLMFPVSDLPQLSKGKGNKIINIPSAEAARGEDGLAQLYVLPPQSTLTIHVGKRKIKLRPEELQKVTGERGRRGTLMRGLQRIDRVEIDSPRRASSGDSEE
T1 sequence (P20083 whole entry): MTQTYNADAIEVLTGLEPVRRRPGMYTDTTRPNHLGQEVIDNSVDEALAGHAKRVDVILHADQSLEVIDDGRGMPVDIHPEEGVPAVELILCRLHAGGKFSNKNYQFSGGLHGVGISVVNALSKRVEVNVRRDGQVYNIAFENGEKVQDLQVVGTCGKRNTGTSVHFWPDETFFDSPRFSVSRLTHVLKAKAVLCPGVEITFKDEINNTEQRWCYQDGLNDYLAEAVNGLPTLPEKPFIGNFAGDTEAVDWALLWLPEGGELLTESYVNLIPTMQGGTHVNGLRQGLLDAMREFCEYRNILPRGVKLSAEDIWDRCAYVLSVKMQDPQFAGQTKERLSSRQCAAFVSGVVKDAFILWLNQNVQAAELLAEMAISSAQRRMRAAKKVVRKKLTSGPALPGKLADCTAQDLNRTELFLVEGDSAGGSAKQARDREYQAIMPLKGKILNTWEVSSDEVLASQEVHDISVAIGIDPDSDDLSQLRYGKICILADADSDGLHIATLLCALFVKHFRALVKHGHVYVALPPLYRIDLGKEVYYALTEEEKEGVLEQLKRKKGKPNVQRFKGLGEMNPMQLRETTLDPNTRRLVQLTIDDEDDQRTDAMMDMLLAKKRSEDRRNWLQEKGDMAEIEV

Consider `Cc1[nH]c(C(=O)Nc2nc3ccc(C(=O)O)cc3s2)c(Cl)c1Cl` [A], for which, in data set [1], the IC50 is 0.5 ± 0.28 µM.
As to `CC(C)(O/N=C(\C(=O)N[C@@H]1C(=O)N2C(C(=O)[O-])=C(C[N+]3(CCNC(=O)c4ccc(O)c(O)c4Cl)CCCC3)CS[C@H]12)c1csc(N)n1)C(=O)O` [Cefiderocol, reference compound], the MIC is 1 µM in [2] (+Fe: CAMHB + Fe); 0.25 µM (≈ 0.188 µg/mL) in [2] (−Fe: ID-CAMHB); 0.125 µM in data set [3] (setting [9]); 0.0625 µM in data set [3] (setting [10]); 2 µM in data set [4] (+Fe: CAMHB + Fe); 0.25 µM (≈ 0.188 µg/mL) in data set [4] (−Fe: ID-CAMHB). Besides, the MIC in [5] (setting [11]) was found to be 0.25 µM; in data set [5] (setting [12]) it was 0.25 µM (≈ 0.188 µg/mL). The “improvement of antibacterial activity in iron-depleted medium” value in [3] is listed as “twofold”.
As to `O=C(NCc1cc(=O)c(O)co1)c1ccc2nc(NC(=O)c3cc(Br)c(Br)[nH]3)sc2c1` [Compound 10, 2-(4,5-Dibromo-1H-pyrrole-2-carboxamido)-N-((5-hydroxy-4-oxo-4H-pyran-2-yl)methyl)benzo[d]thiazole-6-carboxamide], the melting point was greater than 300 °C. Further, the MIC in data set [2] (+Fe: CAMHB + Fe) was greater than 50 µM. In addition, in [2] (−Fe: ID-CAMHB), the MIC is greater than 50 µM. For the same compound, in [6], the “IC50 E. coli DNA gyrase (range in words)” value is on record as “low micromolar range” and the IC50 came to 1.42 ± 0.18 µM. For the same compound, the MIC in data set [3] (setting [9]) was greater than 50 µM. The MIC in [3] (setting [10]) was greater than 50 µM. In [7], this compound registered an IC50 greater than 10 µM. Further, the MIC in data set [4] (+Fe: CAMHB + Fe) was greater than 50 µM. Moreover, the MIC in [4] (−Fe: ID-CAMHB) was greater than 50 µM. The compound further showed an MIC in data set [8] greater than 50 µM. In addition, the MIC in [5] (setting [11]) is given as greater than 50 µM. Also, the MIC in data set [5] (setting [12]) is greater than 50 µM.
Regarding `O=C(NCc1cc(=O)c(O)c[nH]1)c1ccc2nc(NC(=O)c3cc(Br)c(Br)[nH]3)sc2c1` [Compound 12, 2-(4,5-Dibromo-1H-pyrrole-2-carboxamido)-N-((5-hydroxy-4-oxo-1,4-dihydropyridin-2-yl)methyl)benzo[d]thiazole-6-carboxamide], the melting point was greater than 300 °C. For the same compound, in [2] (+Fe: CAMHB + Fe), the MIC was greater than 50 µM. Also, the MIC in [2] (−Fe: ID-CAMHB) is greater than 50 µM. In data set [6], the “IC50 E. coli DNA gyrase (range in words)” value is listed as “low micromolar range” and the IC50 came to 1.7 ± 0.36 µM. Also, the MIC in data set [3] (setting [9]) was greater than 50 µM. In addition, in data set [3] (setting [10]), the MIC is greater than 50 µM. In addition, the IC50 in data set [7] is greater than 10 µM. In addition, the MIC in data set [4] (+Fe: CAMHB + Fe) was greater than 50 µM. Further, in data set [4] (−Fe: ID-CAMHB), the MIC was greater than 50 µM. In data set [8], this compound showed an MIC greater than 50 µM. The MIC in data set [5] (setting [11]) is reported as greater than 50 µM. Further, the MIC in data set [5] (setting [12]) was greater than 50 µM.
As for `O=C(O)c1cc(OCc2cc(=O)c(O)c[nH]2)c2nc(NC(=O)c3cc(Br)c(Br)[nH]3)sc2c1` [Compound 18a, 2-(4,5-Dibromo-1H-pyrrole-2-carboxamido)-4-((5-hydroxy-4-oxo-1,4-dihydropyridin-2-yl)methoxy)benzo[d]thiazole-6-carboxylic acid], the “IC50 E. coli DNA gyrase (range in words)” value in [6] is recorded as “low nanomolar range”. The IC50 in [6] is 0.012 ± 0.005 µM; in data set [7] it was 1.28 ± 0.82 µM. Also, the MIC in [8] (iron-supplemented and iron-depleted media, indicated by weak activity at 50 μM, read-out: MIC) is greater than 50 µM; in [5] (setting [11]) it was greater than 50 µM; in data set [5] (Escherichia coli, ATCC25922, E. coli ATCC 25922, −Fe: iron depleted CAMHB (ID-CAMHB), read-out: Minimum inhibitory concentrations), greater than 50 µM.
`Cc1[nH]c(C(=O)Nc2nc3c(OCc4cc(=O)c(O)c[nH]4)cc(C(=O)O)cc3s2)c(Cl)c1Cl` [Compound 18b, 2-(3,4-Dichloro-5-methyl-1H-pyrrole-2-carboxamido)-4-((5-hydroxy-4-oxo-1,4-dihydropyridin-2-yl)methoxy)benzo[d]thiazole-6-carboxylic acid] yielded a melting point greater than 300 °C. Moreover, in data set [2] (+Fe: CAMHB + Fe), the MIC was greater than 50 µM. Besides, the MIC in data set [2] (−Fe: ID-CAMHB) was greater than 50 µM. Besides, in data set [6], the “IC50 E. coli DNA gyrase (range in words)” value is recorded as “low nanomolar range” and the IC50 came out at 0.022 ± 0.006 µM. For the same compound, the MIC in data set [3] (JW5503, E. coli JW5503, iron-depleted conditions) was 6.37 µg/mL. The compound further showed an MIC in data set [3] (JW5503, E. coli JW5503, iron-supplemented conditions) of 12.7 µg/mL. Moreover, the MIC in data set [3] (setting [9]) came to 25 µM. The MIC in data set [3] (setting [10]) was found to be 12.5 µM. In data set [3], the “improvement of antibacterial activity in iron-depleted medium” value is “twofold”. Moreover, in data set [7], it took 0.43 ± 0.02 µM to reach half-maximal inhibition (IC50). In [4] (+Fe: CAMHB + Fe), the MIC is greater than 50 µM. In addition, the MIC in data set [4] (−Fe: ID-CAMHB) is greater than 50 µM. Moreover, the MIC in [8] was greater than 50 µM. The MIC in [5] (setting [11]) is given as greater than 50 µM. Besides, in data set [5] (setting [12]), the MIC is greater than 50 µM.

For orientation: IC50 means the concentration that gives 50% inhibition. In general, melting point refers to the temperature of the solid-liquid transition.

The values above are taken from article PMC10794952, “Benzothiazole DNA gyrase inhibitors and their conjugates with siderophore mimics: design, synthesis and evaluation” (RSC Advances, 2024).
